From article PMC5614690, “Peptide translocation across MOMP, the major outer membrane channel from Campylobacter jejuni” (Biochemistry and Biophysics Reports, 2017)

Legend:
MOMP channel = test: Single-channel ion-current measurement of MOMP in planar lipid bilayer (peptide binding and translocation); parameters: species or system Campylobacter jejuni (strain 85 H); conditions: for ion-current blockage of MOMP monomer: 3 µM peptide, +125 mV; for kon (association rate) / koff (dissociation rate): 10 µM peptide, single MOMP monomer (MOMP cis); for kon (association rate): DPhPC bilayer; for Ka (equilibrium binding constant): Ka = kon/koff; for on-rate (range given): Penta- and Hepta-arginine together; for koff (dissociation rate): koff = 1/τ; for association rate kon as a function of applied voltage: +150 to +250 mV, Penta- vs Hepta-arginine, Fig. 3A; for translocation across MOMP: concluded from voltage dependence of ion-current fluctuations; for residence time, cis vs trans peptide addition / frequency of binding events, cis vs trans peptide addition: control: peptide on cis (ground) side; for residence time, cis vs trans peptide addition: –125 to –250 mV; for frequency of binding events, cis vs trans peptide addition: –150 and –250 mV; for threshold potential for successful translocation: peptide trans, MOMP cis
Description: The planar lipid bilayer was formed using solvent free lipid bilayer technique, [29]. In brief, the cuvettes used for our bilayer experiments consist of cis (electrical ground and side of protein addition if not otherwise indicated) and trans chambers separated by a 25 µm thick Teflon film (Goodfellow, Cambridge, UK) carrying an aperture with a diameter of 40–70 µm. Prior to forming a lipid bilayer, the aperture is pre-painted with 1 μl of 1% hexadexane in hexane. 5% solution of DPhPC in hexane is commonly used as lipid stock. The chambers are filled with electrolyte solution which typically consists of 1 M KCl, 10 mM MES, pH 6.0 with a total solution volume of 2.5 ml. On top of the aqueous phase about 1 μl of the lipid stock solution is placed. After 10 min allowing for evaporation of solvent, the membrane is formed by raising and lowering the water level. To investigate the outer membrane protein of C. jejuni, MOMP was added to the cis (ground) side of the chamber to a final concentration of 5 ng/ml and the channel insertion was facilitated by rapid mixing of the content of the chamber while applying a transmembrane potential of −199 mV. Electrical recordings were made through a pair of Ag/AgCl electrodes (World Precision Instruments, Sarasota, FL, USA), attached to an Axon Instruments 200B amplifier (Axon Instruments Inc., Sunnyvale, CA, USA) in the voltage clamp mode. Data were filtered by a low pass Bessel filter at 10 kHz and directly saved into the computer memory with a sampling frequency of 50 kHz. Data analysis was performed using Clampfit software of version 10.4 (Axon Instruments Inc., Sunnyvale, CA, USA). To obtain quantitative information on the interaction of peptides with the channel we assume that peptide binding or penetration to the channel cause sufficiently strong reduction of the ion-current compared to the typical background noise. […] This is even more pronounced for longer peptides (Fig. 1C and D).
Fig. 1 Typical ion-conductance traces of monomeric MOMP in presence of poly-arginines at +125 mV. A. In the absence of peptides; B. 3 µM of Tri-arginine; C. […] Experimental conditions: 1 M KCl, 10 mM MES, pH 6.0, T= 20 °C. The peptide is added to the trans compartment of the cuvette corresponding to the electrode at positive voltage. For the sake of clarity the traces were filtered at 5 kHz. MOMP is added on the cis (ground) side (n = 4).
For further analysis we should note that in our experiment we work under dilute concentrations and thus, the number of entries is in good approximation proportional to the concentration of the peptides in solution. The on-rate kon (association rate) is obtained by counting the number of ion-current blockage events per time n [s^−1] divided by the concentration [c] of the peptide, [26], [29], [30]. Furthermore, in some cases we have trimeric MOMP and the ion-current blockages may originate independently from one of the three monomers. kon=n/3[c]
On the other hand the opening is a statistical event and correlated to the strength of the binding. A channel which is closed at t = 0 will have the probability R(t) to open at time t. Within the above described simple binding model an exponential function R(t) = e^-t/τ. Fitting the life-time distribution of a closed channel by an exponential parameter τ (or dwell time) yields the off-rate (dissociation rate) koff = 1/τ [30]. The equilibrium binding constant Ka [M^−1] of the peptide to the channel is given by the ratio of the rates Ka = kon/koff.
Fig. 2 Analysis of the ion-current fluctuations. A. Hepta-arginine concentration dependence of binding events; data were analysed at applied voltages, +150 and +250 mV; and B. Frequency of binding events of the peptide (10 µM) vs. applied transmembrane potential. Experimental conditions: 1 M KCl, 10 mM MES, pH 6.0, T= 20 °C. MOMP is added on the cis (ground) side (n = 4).
A. Voltage dependence of the on-rate; and B. off-rate. […]

Nocardia channel = conditions: ref [25]; cited from earlier work
Description: Binding and translocation can be distinguished using the voltage dependency of the association and disassociation rates. If the time spent by a charged molecule inside the channel increases with increasing voltage, we conclude that the molecule is pulled inside on one side of the channel without being translocated. On the other hand, if the residence time decreases with increasing voltage we conclude that the molecule is able to follow the electric field gradient leaving faster to the other side. In the case of Hepta-arginine, the residence time increased from ~100 to 410 µs with increa ...

[1] = trans side, 1 M KCl, 10 mM MES, pH 6.0, 20 °C, n = 4
[2] = +150 mV, trans side, 1 M KCl, 10 mM MES, pH 6.0, 20 °C, n = 4
[3] = +150 mV, 1 M KCl, 10 mM MES, pH 6.0, 20 °C
[4] = +150 mV, 10 µM, trans side, 1 M KCl, 10 mM MES, pH 6.0, 20 °C
[5] = +175 mV, trans side, 1 M KCl, 10 mM MES, pH 6.0, 20 °C, n = 4
[6] = +175 mV, 1 M KCl, 10 mM MES, pH 6.0, 20 °C
[7] = +250 mV, trans side, 1 M KCl, 10 mM MES, pH 6.0, 20 °C, n = 4
[8] = +250 mV, 1 M KCl, 10 mM MES, pH 6.0, 20 °C
[9] = 1 M KCl, 10 mM MES, pH 6.0, 20 °C

Substance	strength of channel–peptide interaction (order) (MOMP channel)	ion-current blockage of MOMP monomer (MOMP channel; [1])	kon (association rate) (MOMP channel; [2])	Ka (equilibrium binding constant) (MOMP channel; [3])	on-rate (range given) (MOMP channel; [4])	koff (dissociation rate) (MOMP channel; [2])	association rate kon as a function of applied voltage (MOMP channel)	kon (association rate) (MOMP channel; [5])	Ka (equilibrium binding constant) (MOMP channel; [6])	koff (dissociation rate) (MOMP channel; [5])	kon (association rate) (MOMP channel; [7])	Ka (equilibrium binding constant) (MOMP channel; [8])	koff (dissociation rate) (MOMP channel; [7])	translocation across MOMP (MOMP channel)	residence time, cis vs trans peptide addition (MOMP channel; n = 4)	frequency of binding events, cis vs trans peptide addition (MOMP channel; n = 4)	threshold potential for successful translocation (MOMP channel; [9])	voltage for pulling peptide through Nocardia channel (Nocardia channel)	also measured
H-RRRRR-OH [Penta-arginine, H-RRRRR-OH trifluoroacetate salt, Mw: 0.798 kDa, from Bachem AG]	Hepta-arginine > Penta-arginine > Tri-arginine	complete monomer blockage	12.9 ± 1.2 (M^−1 s^−1) × 10^6	2.0 ± 0.5 (M^−1) × 10^3	13 ± 2 10^6 M^−1 s^−1	6.2 ± 0.3 (s^−1) × 10^3	almost identical increasing values	20.4 ± 1.2 (M^−1 s^−1) × 10^6	4.1 ± 0.3 (M^−1) × 10^3	5.0 ± 0.6 (s^−1) × 10^3	34.7 ± 0.8 (M^−1 s^−1) × 10^6	3.3 ± 0.2 (M^−1) × 10^3	10.3 ± 0.8 (s^−1) × 10^3	translocate across the MOMP channel	did not reveal significant differences	did not reveal significant differences	+175 mV	> –175 mV	koff relative to Hepta-arginine (MOMP channel; Fig. 3B, 10 µM, trans side): about twice higher off-rates; permeation vs voltage (MOMP channel; increasing voltages): permeated faster with increasing voltages
H-RRRRRRR-OH [Hepta-arginine, H-RRRRRRR-OH trifluoro acetate salt, Mw: 1.111 kDa, from Bachem AG]	Hepta-arginine > Penta-arginine > Tri-arginine	complete monomer blockage	14.5 ± 1.5 (M^−1 s^−1) × 10^6	4.4 ± 0.3 (M^−1) × 10^3	13 ± 2 10^6 M^−1 s^−1	3.2 ± 0.1 (s^−1) × 10^3	almost identical increasing values	22.2 ± 0.8 (M^−1 s^−1) × 10^6	8.5 ± 0.2 (M^−1) × 10^3	2.6 ± 0.3 (s^−1) × 10^3	39.1 ± 0.5 (M^−1 s^−1) × 10^6	7.7 ± 0.3 (M^−1) × 10^3	5.0 ± 0.8 (s^−1) × 10^3	translocate across the MOMP channel	did not reveal significant differences	did not reveal significant differences	+175 mV	> −150 mV	number of binding events vs peptide concentration (MOMP channel; 1 to 10 µM, +150 and +250 mV, n = 4): the number of binding events increased with the concentration of the peptide; binding vs translocation, low voltage (MOMP channel; +125 to +175 mV, 10 µM): binds to channel without being translocated; reduction in residence time with voltage (MOMP channel; +175 to +250 mV): reduction of one-fold; binding vs translocation, high voltage (MOMP channel; +175 to +250 mV, 10 µM): successful translocation of the peptide; ion-current blockage, reverse addition (MOMP channel; peptide on cis (ground) side, MOMP on trans side, negative voltages): strong monomer blockages with negative voltages; residence time, end of decrease (MOMP channel; peptide on cis (ground) side, MOMP on trans side, –125 to –250 mV (Fig. S5), final value, 1 M KCl, 10 mM MES, pH 6.0, 20 °C, n = 4): 200 µs; residence time, start of decrease (MOMP channel; peptide on cis (ground) side, MOMP on trans side, –125 to –250 mV (Fig. S5), starting value, 1 M KCl, 10 mM MES, pH 6.0, 20 °C, n = 4): 410 µs
Tri-arginine	Hepta-arginine > Penta-arginine > Tri-arginine	visible but very short and not fully resolvable monomer blockages																	residence time (MOMP channel; +125 to +250 mV, 10 µM, trans side (MOMP cis), corresponds to time resolution of the instrument, 1 M KCl, 10 mM MES, pH 6.0, 20 °C, n = 4): ~ 70 ± 5 µs
